These results are taken from patent US11319347B2, “Peptide compound and method for producing same, composition for screening use, and method for selecting peptide compound” (FUJIFILM Corporation, priority 2017, dated 2022).

One may read the Kd as the equilibrium constant for the complex coming apart.

Like-named read-outs stand apart in the source and are kept apart here. Starred links: 1 amine or outer side, 2 acyl side, 3 side chain; linkers in the order of their positions; H or OH if unused. Positions of bridges follow the written chain, without caps; N, C: chain ends. Non-standard residues stand in square brackets, D forms with d. Residues, ends and D or L forms follow the SMILES beside them. ξ: configuration not given here. 2Pal(6-thiazolin-2-yl-4R-CO) = O=C([C@H](Cc1cccc(C2=N[C@H](C(=O)[*:3])CS2)n1)N[*:1])[*:2]; Ile(3ξ) = CCC(C)[C@H](N)C(=O)O; dCha = N[C@H](CC1CCCCC1)C(=O)O Where only a bound is given, the exact number is not on record here.

The nature of series [1]: Membrane permeability of synthesized cyclic peptides by PAMPA (Measurement Method A: 1 μmol/L; Method B: 10 μmol/L). In kind it is in vitro ADME. The following applies: Measurement method A, 25° C., 4 hours. Background: The PAMPA barrier holds no transporters, so it reflects passive diffusion.
Series [2] is described as follows: Metabolic stability of cyclic peptides in human liver microsomes (HLM residual rate). The following applies: 1 μmol/L, human liver microsomes 0.5 mg protein/mL, 37° C., 20 minutes, NADPH and UDPGA. In kind it is in vitro ADME. How it is done: Test of metabolic stability of cyclic peptide in human liver microsome
An experiment using human liver microsomes (HLMs) was carried out in order to compare and examine the metabolic stability of the synthesized cyclic peptides.
The compound with a final concentration of 1 μmol/L was incubated in human liver microsomes (BD Cat #452117) prepared to a final concentration of 0.5 mg protein/mL using 100 mmol/L phosphate buffer (pH 7.4) at 37° C. for 20 minutes in the presence of reduced nicotinamide adenine dinucleotide phosphate (NADPH) and uridine 5′-diphosphate-α-D-glucuronic acid (UDPGA). Deproteinization treatment with acetonitrile was carried out, the amount of unaltered substance remaining was quantified using LC/MS/MS, and the residual rate (%) in 20 minutes was calculated. The HLM residual rate (%) obtained by this method is described in the following table.
Evaluation standards are as follows.
A general note: Microsomes from liver hold many membrane-bound enzymes, among them those of drug oxidation.

For another series, the target named is Mcl-1. The series can be described thus: Binding of synthetic peptide to target protein by surface plasmon resonance (SPR, Biacore T200). How it is done:
Preparation of Target Protein
A plasmid construct was prepared in which a gene containing the amino acid 1-172 portion of MCL-1 was introduced into plasmid pET28a, and a His6 tag, MBP, and a TEV protease recognition sequence were attached to the N terminal side thereof. This plasmid was transformed into E. coli strain BL21 (DE3) RIPL which was then cultured at 30° C. In a case where the O.D. reached 0.8, IPTG […] was added to induce large-scale expression, followed by culturing at 16° C. overnight. The recovered bacterial cells were suspended in Lysis Buffer A (25 mmol/L Tris (pH 7.5), 150 mmol/L NaCl), and then disrupted by sonication. This was followed by centrifugation at 15 krpm for 15 minutes. The supernatant after centrifugation was purified using a Ni-NTA resin (manufactured by QIAGEN GmbH). The sample adsorbed to the Ni-NTA resin was washed with Lysis Buffer A containing 15 mmol/L imidazole and then eluted with Lysis Buffer A containing 200 mmol/L imidazole. The sample was stored at −80° C. after substitution with Lysis buffer by dialysis.
Evaluation of Binding of Synthetic Peptide to Target Protein Using Surface Plasmon Resonance (SPR)
An SPR experiment for analyzing the interaction of a synthetic peptide with Mel-1 was carried out at 25° C. using Biacore T200 (manufactured by GE Healthcare Inc.). The synthetic peptide was added to the immobilized protein, and the interaction therebetween was evaluated.
A buffer obtained by adding dimethylformamide (DMF) or dimethylsulfoxide (DMSO) to a final concentration of 1 vol % to HBS-EP+ (manufactured by GE Healthcare Inc.) was used as a running buffer. Mcl-1 was immobilized on a Biacore Sensor Chip Series S Sensor Chip CM5 (manufactured by GE Healthcare Inc.) using an Amine Coupling Kit (manufactured by GE Healthcare Inc.). In order to measure the dissociation constant (KD), each synthetic peptide was added at multiple concentrations to obtain a sensorgram of binding to immobilized Mel-1.
The analysis of the obtained sensorgram was carried out using T200 evaluation software (manufactured by GE Healthcare Inc.). Solvent correction to DMF or DMSO was carried out, and then the KD was determined by equilibrium value analysis using a sensorgram obtained by subtracting the sensorgram to a flow cell in which Mcl-1 is not immobilized.
One having a KD of less than 50 μmol/L is denoted as A, and one having a KD of 50 μmol/L or more is denoted as B.
Binding of the synthetic peptide to the target protein was evaluated in the same manner as described above.
(SPR reads the build-up and loss of mass on a sensor chip optically.)

The mark [3] stands for this setting: 25° C., immobilized Mcl-1, Table 51, read-out: Binding evaluation result (KD).
The mark [4] stands for this setting: immobilized Mcl-1, Table 53 (peptides from mRNA display), read-out: Binding evaluation result (KD).

For the molecule `CC(=O)N[C@H]1CSSC[C@@H](C(N)=O)NC(=O)[C@H](CCCNC(=N)N)NC(=O)[C@H](Cc2c[nH]c3ccccc23)NC(=O)[C@@H](CC2CCCCC2)NC(=O)[C@@H]2CCCN2C1=O` [9-1] (Ac-CP[dCha]WRC-NH2; disulfide 1-6), in series [1], the “Pe(10^−6 cm/sec)” value is given as “+ (0.01<Pe (10^−6 cm/s)≤0.2)”. Further, the HLM residual rate result in series [2] is given as “+ (HLM residual rate (%)≤40%)”.
Regarding `CC(C)C[C@@H]1NC(=O)[C@H](Cc2ccccc2)NC(=O)[C@H](C)NC(=O)[C@@H]2CCCN2C(=O)[C@H](Cc2c[nH]c3ccccc23)NC(=O)[C@H](CC(C)C)NC(=O)[C@@H](CS)NC(=O)[C@H](C)NC(=O)C(Cc2c[nH]c3ccccc23)NC(=O)[C@H](CO)NC(=O)C(CCCNC(=N)N)NC(=O)[C@@H]2CSC(=N2)c2cccc(n2)C[C@H](C(N)=O)NC(=O)[C@H](Cc2ccc(O)cc2)NC(=O)[C@H](Cc2c[nH]c3ccccc23)NC1=O` (some centres unmarked) [Cyclic peptide a-5-1], the Kd at Mcl-1 (setting [3]) is at least 50 µM.
Regarding `CC(C)C[C@@H]1NC(=O)[C@H](C(C)C)NC(=O)[C@H](CO)NC(=O)[C@H](Cc2ccccc2)NC(=O)[C@H](C)NC(=O)[C@H](Cc2c[nH]c3ccccc23)NC(=O)[C@@H]2CSC(=N2)c2cccc(n2)C[C@H](C(N)=O)NC(=O)[C@H](Cc2c[nH]c3ccccc23)NC(=O)[C@H](C(C)C)NC(=O)[C@@H]2CCCN2C(=O)[C@H](Cc2ccccc2)NC(=O)[C@H](Cc2c[nH]c3ccccc23)NC(=O)[C@@H]2CCCN2C(=O)[C@H](Cc2c[nH]c3ccccc23)NC1=O` [Cyclic peptide a-5-2], the Kd on Mcl-1 (setting [3]) is at least 50 µM.
Regarding `CC(C)C[C@@H]1NC(=O)[C@H](C)NC(=O)[C@@H](Cc2ccccc2)NC(=O)[C@@H]2CSC(=N2)c2cccc(n2)C[C@@H](C(N)=O)NC(=O)[C@H](Cc2ccccc2)NC(=O)[C@H](C)NC(=O)[C@H](CC(C)C)NC(=O)[C@@H]2CCCN2C(=O)[C@@H](CC(C)C)NC(=O)[C@@H](Cc2ccccc2)NC(=O)[C@H](CCC(N)=O)NC(=O)[C@@H]2CCCN2C(=O)[C@@H](Cc2c[nH]c3ccccc23)NC(=O)[C@H](CC(C)C)NC1=O` [Cyclic peptide a-5-3] ([dF]ALL[dW]PQ[dF][dL]PLAF[2Pal(6-thiazolin-2-yl-4R-CO)]-NH2; lactam N-14), the Kd on Mcl-1 (setting [3]) was at least 50 µM.
Turning to `CC(C)C[C@@H]1NC(=O)[C@H](C(C)C)NC(=O)[C@H](CO)NC(=O)[C@H](Cc2c[nH]c3ccccc23)NC(=O)[C@@H]2CSC(=N2)c2cccc(n2)C[C@@H](C(N)=O)NC(=O)[C@H](CO)NC(=O)[C@H](C(C)C)NC(=O)[C@H](CO)NC(=O)[C@@H]2CCCN2C(=O)[C@H](C(C)C)NC(=O)[C@H](Cc2ccccc2)NC(=O)[C@H](Cc2c[nH]c3ccccc23)NC(=O)[C@@H]2CCCN2C(=O)[C@H](Cc2c[nH]c3ccccc23)NC1=O` [Cyclic peptide a-5-4] (WSVLWPWFVPSVS[2Pal(6-thiazolin-2-yl-4R-CO)]-NH2; lactam N-14), the Kd at Mcl-1 (setting [3]) is under 50 µM.
Turning to `CC(C)C[C@@H]1NC(=O)CNC(=O)[C@@H]2CCCN2C(=O)[C@H](CCC(=O)O)NC(=O)[C@H](Cc2ccccc2)NC(=O)[C@H](CO)NC(=O)[C@@H]2CSC(=N2)c2cccc(n2)C[C@@H](C(N)=O)NC(=O)[C@H](CC(C)C)NC(=O)[C@H](C(C)C)NC(=O)[C@H](CCCNC(=N)N)NC(=O)[C@H](Cc2ccccc2)NC(=O)[C@H](CC(C)C)NC(=O)[C@H](Cc2c[nH]c3ccccc23)NC(=O)[C@H](Cc2c[nH]c3ccccc23)NC1=O` [Cyclic peptide a-5-5] (SFEPGLWWLFRVL[2Pal(6-thiazolin-2-yl-4R-CO)]-NH2; lactam N-14), the dissociation constant Kd at Mcl-1 (setting [3]) was under 50 µM.
Still for that read-out and setting: for `CC(C)C[C@@H]1NC(=O)[C@H](Cc2c[nH]c3ccccc23)NC(=O)[C@@H]2CCCN2C(=O)[C@H](Cc2c[nH]c3ccccc23)NC(=O)[C@H](CC(C)C)NC(=O)[C@H](C(C)C)NC(=O)[C@H](CS)NC(=O)[C@H](Cc2c[nH]c3ccccc23)NC(=O)[C@H](CO)NC(=O)[C@@H]2CSC(=N2)c2cccc(n2)C[C@@H](C(N)=O)NC(=O)CNC(=O)[C@H](Cc2c[nH]c3ccccc23)NC(=O)[C@H](Cc2ccccc2)NC(=O)[C@H](C(C)C)NC1=O` [Cyclic peptide a-5-6] (SWCVLWPWLVFWG[2Pal(6-thiazolin-2-yl-4R-CO)]-NH2; lactam N-14) the value was at least 50 µM; for `CCC(C)[C@@H]1NC(=O)[C@@H]2CCCN2C(=O)[C@H](Cc2c[nH]c3ccccc23)NC(=O)[C@H](CC(C)C)NC(=O)[C@H](CC(C)C)NC(=O)[C@H](C(C)C)NC(=O)[C@H](Cc2c[nH]c3ccccc23)NC(=O)[C@@H]2CCCN2C(=O)[C@@H]2CSC(=N2)c2cccc(n2)C[C@@H](C(N)=O)NC(=O)[C@H](CC(C)C)NC(=O)[C@H](CO)NC(=O)[C@@H]2CCCN2C(=O)[C@H](C(C)C)NC(=O)[C@H](CC(C)C)NC1=O` (stereo partly drawn) [Cyclic peptide a-5-7] (PWVLLWP[Ile(3ξ)]LVPSL[2Pal(6-thiazolin-2-yl-4R-CO)]-NH2; lactam N-14), at least 50 µM; for `CC(C)C[C@@H]1NC(=O)[C@H](C)NC(=O)[C@H](Cc2ccccc2)NC(=O)[C@H](C)NC(=O)[C@@H]2CCCN2C(=O)[C@H](Cc2c[nH]c3ccccc23)NC(=O)[C@H](CC(C)C)NC(=O)[C@H](CS)NC(=O)[C@H](C)NC(=O)[C@H](Cc2c[nH]c3ccccc23)NC(=O)[C@@H]2CSC(=N2)c2cccc(n2)C[C@@H](C(N)=O)NC(=O)[C@H](CC(C)C)NC(=O)[C@H](Cc2c[nH]c3ccccc23)NC(=O)[C@H](CO)NC1=O` [Cyclic peptide a-5-8] (WACLWPAFALSWL[2Pal(6-thiazolin-2-yl-4R-CO)]-NH2; lactam N-14), at least 50 µM.
Regarding `CC(C)C[C@@H]1NC(=O)[C@@H]2CCCN2C(=O)[C@H](Cc2c[nH]c3ccccc23)NC(=O)[C@H](Cc2ccccc2)NC(=O)[C@H]([C@H](C)O)NC(=O)[C@@H]2CCCN2C(=O)[C@H](CC(=O)O)NC(=O)[C@H](CS)NC(=O)[C@H](Cc2ccc(O)cc2)NC(=O)[C@H](CCC(=O)O)NC(=O)[C@@H]2CSC(=N2)c2cc(cs2)C[C@@H](C(N)=O)NC(=O)[C@H](CCCNC(=N)N)NC(=O)[C@H](CCCNC(=N)N)NC(=O)[C@H](Cc2ccccc2)NC1=O` [a-6-1], the dissociation constant (Kd) on Mcl-1 (setting [4]) is under 50 µM.
The same measure, in the same setting: with `CC(C)C[C@@H]1NC(=O)[C@H](CC(=O)O)NC(=O)[C@H](CCC(N)=O)NC(=O)[C@H](CC(=O)O)NC(=O)[C@H](CCCCN)NC(=O)[C@H](Cc2ccc(O)cc2)NC(=O)[C@H](CC(=O)O)NC(=O)[C@H](Cc2ccc(O)cc2)NC(=O)[C@H](CCC(=O)O)NC(=O)[C@H](Cc2ccccc2)NC(=O)[C@H](C)NC(=O)CNC(=O)[C@H](C)NC(=O)[C@@H]2CSC(=N2)c2cc(cs2)C[C@H](C(N)=O)NC1=O` [a-6-2] the figure was at least 50 µM; with `CC[C@H](C)[C@@H]1NC(=O)[C@H](CC(=O)O)NC(=O)[C@@H]2CSC(=N2)c2cc(cs2)CC(C(N)=O)NC(=O)[C@H](CCCNC(=N)N)NC(=O)[C@H](CC(=O)O)NC(=O)CNC(=O)[C@H](CC(=O)O)NC(=O)[C@H](CCCCN)NC(=O)[C@H](Cc2ccc(O)cc2)NC(=O)[C@H](CC(=O)O)NC(=O)[C@H](Cc2ccc(O)cc2)NC(=O)[C@H](C(C)C)NC(=O)CNC(=O)[C@H](C(C)C)NC1=O` (some centres unmarked) [a-6-3], at least 50 µM.
`CC[C@H](C)[C@@H]1NC(=O)[C@H](CO)NC(=O)[C@H](CCCNC(=N)N)NC(=O)[C@H](CC(C)C)NC(=O)[C@H]([C@@H](C)O)NC(=O)[C@H](CO)NC(=O)[C@H](C)NC(=O)[C@H]([C@@H](C)O)NC(=O)[C@H](CCC(=O)O)NC(=O)[C@H](CCC(=O)O)NC(=O)[C@@H]2CSC(=N2)c2cc(cs2)C[C@@H](C(N)=O)NC(=O)[C@H](CO)NC(=O)[C@H](CC(=O)O)NC(=O)CNC1=O` [a-6-4]: the Kd at Mcl-1 (setting [4]) is under 50 µM.
